# System: seizures associated with Cortical Dysplasia and Cortical Brain Malformation
# Assay: Open label, expanded-access program of botanically derived purified CBD: caregiver-diary seizure frequency
# Assay type: in vivo, human patients
# Design: reduction in atonic seizures over the treatment period / reduction in tonic seizures over the treatment period / reduction in focal seizures without impairment over the treatment period: concentration or dose not given beside the values
# Conditions: for Seizure frequency: Tonic-clonic: baseline 13.0; for Seizure frequency: Myoclonic: baseline 4.0
# Method: Subjects were required to be on one or more AEDs at stable doses for a minimum of two weeks prior to baseline and to have stable vagus nerve stimulation (VNS) settings and ketogenic diet ratios for a minimum of four weeks prior to baseline.
# Dose was then increased weekly by 5 mg/kg/day to a goal of 20 to 25 mg/kg/day.
# A maximum dose of 50 mg/kg/day could be utilised for patients who were tolerating the medication but had not achieved seizure control; these patients had further weekly titration by 5 mg/kg/day.
# Modifications were made to concomitant AEDs as per clinical indication.
# Seizure frequency, intensity, and duration were recorded by caregivers in a diary during a baseline period of at least 28 days. Changes in seizure frequency relative to baseline were calculated after at least 2 weeks and at defined timepoints of treatment.
# Patients may be defined as responders if they had more than 50% reduction in seizure frequency compared to baseline. the percent change in seizure frequency was calculated as follows: […]
# The percent change of seizure frequency may be calculated for any time interval where seizure number has been recorded. For the purpose of this example the percent change of seizure frequency for the end of the treatment period was calculated as follows: […]
smiles,measurement,setting,value
"C=C(C)[C@@H]1CCC(C)=C[C@H]1c1c(O)cc(CCCCC)cc1O [CBD, cannabidiol]",Seizure frequency: Atonic,"Patient 1, 2 weeks, CBD 10.0 mg/kg/day, baseline 2.0",0.0 seizures per week
same,Seizure frequency: Tonic-clonic,"Patient 1, 2 weeks, CBD 10.0 mg/kg/day",12.0 seizures per week
same,Seizure frequency: Atonic,"Patient 1, 4 weeks, CBD 20.0 mg/kg/day, baseline 2.0",1.0 seizures per week
same,Seizure frequency: Tonic-clonic,"Patient 1, 4 weeks, CBD 20.0 mg/kg/day",25.0 seizures per week
same,Seizure frequency: Atonic,"Patient 1, 8 weeks, CBD 25.0 mg/kg/day, baseline 2.0",3.0 seizures per week
same,Seizure frequency: Tonic-clonic,"Patient 1, 8 weeks, CBD 25.0 mg/kg/day",17.0 seizures per week
same,Seizure frequency: Atonic,"Patient 1, 12 weeks, CBD 25.0 mg/kg/day, baseline 2.0",1.0 seizures per week
same,Seizure frequency: Tonic-clonic,"Patient 1, 12 weeks, CBD 25.0 mg/kg/day",16.0 seizures per week
same,reduction in atonic seizures over the treatment period,"Patient 1, treated for 12 weeks, vs baseline",50%
same,Seizure frequency: Tonic,"Patient 2, 12 weeks, CBD 5.0 mg/kg/day, baseline 140.0",70.0 seizures per week
same,reduction in tonic seizures over the treatment period,"Patient 2, treated for 12 weeks, vs baseline",50%
same,Seizure frequency: Myoclonic,"Patient 3, 4 weeks, CBD 20.0 mg/kg/day",0.0 seizures per week
same,Seizure frequency: Tonic,"Patient 3, 4 weeks, CBD 20.0 mg/kg/day, baseline 20.0",4.0 seizures per week
same,Seizure frequency: Atonic,"Patient 3, 4 weeks, CBD 20.0 mg/kg/day, baseline 24.0",0.0 seizures per week
same,Seizure frequency: Myoclonic,"Patient 3, 8 weeks, CBD 25.0 mg/kg/day",0.0 seizures per week
same,Seizure frequency: Tonic,"Patient 3, 8 weeks, CBD 25.0 mg/kg/day, baseline 20.0",200.0 seizures per week
same,Seizure frequency: Atonic,"Patient 3, 8 weeks, CBD 25.0 mg/kg/day, baseline 24.0",0.0 seizures per week
same,Seizure frequency: Myoclonic,"Patient 3, 12 weeks, CBD 14.8 mg/kg/day",56.0 seizures per week
same,Seizure frequency: Tonic,"Patient 3, 12 weeks, CBD 14.8 mg/kg/day, baseline 20.0",140.0 seizures per week
same,Seizure frequency: Atonic,"Patient 3, 12 weeks, CBD 14.8 mg/kg/day, baseline 24.0",12.0 seizures per week
same,Seizure frequency: Myoclonic,"Patient 3, 24 weeks, CBD 9.7 mg/kg/day",28.0 seizures per week
same,Seizure frequency: Tonic,"Patient 3, 24 weeks, CBD 9.7 mg/kg/day, baseline 20.0",140.0 seizures per week
same,Seizure frequency: Atonic,"Patient 3, 24 weeks, CBD 9.7 mg/kg/day, baseline 24.0",12.0 seizures per week
same,Seizure frequency: Myoclonic,"Patient 3, 36 weeks, CBD 10.9 mg/kg/day",0.0 seizures per week
same,Seizure frequency: Tonic,"Patient 3, 36 weeks, CBD 10.9 mg/kg/day, baseline 20.0",60.0 seizures per week
same,Seizure frequency: Atonic,"Patient 3, 36 weeks, CBD 10.9 mg/kg/day, baseline 24.0",16.0 seizures per week
same,Seizure frequency: Myoclonic,"Patient 3, 48 weeks, CBD 10.6 mg/kg/day",20.0 seizures per week
same,Seizure frequency: Tonic,"Patient 3, 48 weeks, CBD 10.6 mg/kg/day, baseline 20.0",40.0 seizures per week
same,Seizure frequency: Atonic,"Patient 3, 48 weeks, CBD 10.6 mg/kg/day, baseline 24.0",8.0 seizures per week
same,Seizure frequency: Myoclonic,"Patient 3, 60 weeks, CBD 17.1 mg/kg/day",1.0 seizures per week
same,Seizure frequency: Tonic,"Patient 3, 60 weeks, CBD 17.1 mg/kg/day, baseline 20.0",28.0 seizures per week
same,Seizure frequency: Atonic,"Patient 3, 60 weeks, CBD 17.1 mg/kg/day, baseline 24.0",1.0 seizures per week
same,Seizure frequency: Myoclonic,"Patient 3, 72 weeks, CBD 16.2 mg/kg/day",1.0 seizures per week
same,Seizure frequency: Tonic,"Patient 3, 72 weeks, CBD 16.2 mg/kg/day, baseline 20.0",40.0 seizures per week
same,Seizure frequency: Atonic,"Patient 3, 72 weeks, CBD 16.2 mg/kg/day, baseline 24.0",1.0 seizures per week
same,Seizure frequency: Myoclonic,"Patient 3, 96 weeks, CBD 24.5 mg/kg/day",16.0 seizures per week
same,Seizure frequency: Tonic,"Patient 3, 96 weeks, CBD 24.5 mg/kg/day, baseline 20.0",28.0 seizures per week
same,Seizure frequency: Atonic,"Patient 3, 96 weeks, CBD 24.5 mg/kg/day, baseline 24.0",2.0 seizures per week
same,Seizure frequency: Myoclonic,"Patient 3, 120 weeks, CBD 17.7 mg/kg/day",16.0 seizures per week
same,Seizure frequency: Tonic,"Patient 3, 120 weeks, CBD 17.7 mg/kg/day, baseline 20.0",6.0 seizures per week
same,Seizure frequency: Atonic,"Patient 3, 120 weeks, CBD 17.7 mg/kg/day, baseline 24.0",4.0 seizures per week
same,Seizure frequency: Myoclonic,"Patient 3, 132 weeks, CBD 17.3 mg/kg/day",16.0 seizures per week
same,Seizure frequency: Tonic,"Patient 3, 132 weeks, CBD 17.3 mg/kg/day, baseline 20.0",6.0 seizures per week
same,Seizure frequency: Atonic,"Patient 3, 132 weeks, CBD 17.3 mg/kg/day, baseline 24.0",4.0 seizures per week
same,Seizure frequency: Myoclonic,"Patient 3, 144 weeks, CBD 19.9 mg/kg/day",40.0 seizures per week
same,Seizure frequency: Tonic,"Patient 3, 144 weeks, CBD 19.9 mg/kg/day, baseline 20.0",56.0 seizures per week
same,Seizure frequency: Atonic,"Patient 3, 144 weeks, CBD 19.9 mg/kg/day, baseline 24.0",2.0 seizures per week
same,reduction in atonic seizures over the treatment period,"Patient 3, treated for 144 weeks, vs baseline",91.7%
same,Seizure frequency: Tonic,"Patient 4, 4 weeks, CBD 20.0 mg/kg/day, baseline 196.0",60.0 seizures per week
same,Seizure frequency: Tonic,"Patient 4, 8 weeks, CBD 25.0 mg/kg/day, baseline 196.0",40.0 seizures per week
same,Seizure frequency: Tonic,"Patient 4, 12 weeks, CBD 30.0 mg/kg/day, baseline 196.0",80.0 seizures per week
same,Seizure frequency: Tonic,"Patient 4, 24 weeks, CBD 50.0 mg/kg/day, baseline 196.0",24.0 seizures per week
same,Seizure frequency: Tonic,"Patient 4, 36 weeks, CBD 50.0 mg/kg/day, baseline 196.0",32.0 seizures per week
same,Seizure frequency: Tonic,"Patient 4, 48 weeks, CBD 50.0 mg/kg/day, baseline 196.0",54.0 seizures per week
same,Seizure frequency: Tonic,"Patient 4, 60 weeks, CBD 50.0 mg/kg/day, baseline 196.0",24.0 seizures per week
same,Seizure frequency: Tonic,"Patient 4, 72 weeks, CBD 49.0 mg/kg/day, baseline 196.0",24.0 seizures per week
same,Seizure frequency: Tonic,"Patient 4, 84 weeks, CBD 46.0 mg/kg/day, baseline 196.0",36.0 seizures per week
